Laboratory results reported in PubChem BioAssay (NCI).
Values joined by “and” are separate entries in the source; they are usually repeats but may differ in a detail not shown here. Identical values can stand only once.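 Grown in 96-well plates, cells were treated for 48 hours with each compound at five concentrations. Insufficient inhibition: endpoint recorded as highest concentration tested. GI50 is the concentration that inhibits growth by half. At the TGI there is no net growth.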

Columns and labels:
Test in all cases: NCI-60 cell line screen, 48 h
A549 NSCLC = test system: A549 NSCLC
IGROV1 ovarian = test system: IGROV1 ovarian
K-562 leukemia = test system: K-562 leukemia
LOX IMVI melanoma = test system: LOX IMVI melanoma
MALME-3M melanoma = test system: MALME-3M melanoma
OVCAR-5 ovarian = test system: OVCAR-5 ovarian
OVCAR-8 ovarian = test system: OVCAR-8 ovarian
T-47D breast = test system: T-47D breast
UACC-257 melanoma = test system: UACC-257 melanoma
UO-31 renal = test system: UO-31 renal

Row | Compound | GI50 (A549 NSCLC) [µM] | TGI (A549 NSCLC) | GI50 (IGROV1 ovarian) | GI50 (K-562 leukemia) [µM] | TGI (K-562 leukemia) [µM] | GI50 (LOX IMVI melanoma) [µM] | TGI (LOX IMVI melanoma) | GI50 (MALME-3M melanoma) [µM] | TGI (MALME-3M melanoma) [µM] | GI50 (OVCAR-5 ovarian) | TGI (OVCAR-5 ovarian) [µM] | TGI (OVCAR-8 ovarian) [µM] | GI50 (T-47D breast) [µM] | GI50 (UACC-257 melanoma) | TGI (UACC-257 melanoma) | GI50 (UO-31 renal) [µM] | TGI (UO-31 renal) [µM] | TGI (IGROV1 ovarian) [µM] | GI50 (OVCAR-8 ovarian) [µM] | TGI (T-47D breast) [µM]
1 | CCc1c2c(nc3cc4c(c(N)c13)OCO4)-c1cc3c(c(=O)n1C2)COC(=O)[C@]3(O)CC | < 0.001 | 1.01 µM and 1.47 µM | 0.161 µM and 0.128 µM | 0.00135 | > 100 | < 0.001 | 0.134 µM and 0.19 µM | 0.0276 | 4.25 | 0.702 µM and 0.0948 µM | 0.409 | 14.7 | < 0.001 | 0.199 µM and 0.0583 µM | 2.58 µM and 2.47 µM | 0.00128 | 0.153 | – | – | –
2 | Cc1ccc(S(=O)(=O)Oc2ccc([N+](=O)[O-])cc2[N+](=O)[O-])cc1 | 8.53 | 22.2 µM | 2.46 µM | 0.689 | > 100 | 3.23 | 15 µM | 10.7 | 29.8 | 8.01 µM | 26.6 | 20.5 | 15.3 | 2.77 µM | 12.2 µM | 2.48 | 9.26 | 8.37 | 4.24 | 45
3 | Cc1cc(C(=O)Nc2nc3cccc(Cl)c3n2[C@@H]2CCCCN(C(=O)/C=C/CN(C)C)C2)ccn1 | 6.37 | 31.8 µM | 0.634 µM | 9.58 | 61.5 | 10.1 | 23.9 µM | 18.2 | 34 | 17.7 µM | 47.6 | 40.3 | 1.5 | 18.8 µM | 34.1 µM | 2.71 | 20.3 | 15.1 | 11.4 | 23.7
4 | CNC1C(O)C(OC2C(N)CC(N)C(OC3OC(CN)=CCC3N)C2O)OCC1(C)O (configuration not stated) | – | > 100 µM | – | – | > 100 | – | > 100 µM | – | > 100 | – | > 100 | > 100 | – | – | > 100 µM | – | > 100 | > 100 | – | > 100
5 | COc1cc2c(c(OC)c1O)-c1ccc(OC)c(=O)cc1[C@@H](NC(=O)C(F)(F)F)CC2 | – | > 100 µM | – | – | > 100 | – | > 100 µM | – | > 100 | – | > 100 | > 100 | – | – | > 100 µM | – | > 100 | 0.695 | – | > 100
6 | CCOC(CCCNCCCn1c2c(c3cc(OC)c(OC)cc3c1=O)C(=O)c1cc3c(cc1-2)OCO3)OCC | 5.73 | 11.8 µM | 0.889 µM | 5.53 | 11.5 | 1.73 | 9.81 µM | 6.77 | 13.6 | 10.2 µM | 17.3 | 11.2 | 7.76 | 7.21 µM | 13.7 µM | 5.82 | 11.9 | 9.66 | 5.27 | 14.4
7 | CCOC(=O)C(Cc1c[nH]c2ccc([N+](=O)[O-])cc12)(NC(C)=O)C(=O)OCC | 67.3 | > 1000 µM | 68.7 µM | 47.7 | > 1000 | > 419 | > 1000 µM | 114 | > 1000 | > 1000 µM | > 1000 | > 870 | 50.1 | > 1000 µM | > 1000 µM | 80.3 | > 1000 | > 833 | 96.7 | > 1000
8 | CN[C@@H](C)C(=O)N[C@H]1CN(C(=O)CC(C)C)CC[C@H]2CC[C@@H](C(=O)NC(c3ccccc3)c3ccccc3)N2C1=O | > 100 | > 100 µM | > 100 µM | 97.9 | > 100 | > 100 | > 100 µM | 4.29 | > 53.9 | > 100 µM | > 100 | > 100 | > 100 | > 74.3 µM | > 100 µM | > 100 | > 100 | > 100 | 61.6 | > 100
9 | COc1cc2c(F)nccc2cc1C(=O)N[C@@H](c1ccc(F)c(Cl)c1)[C@@H]1C[C@@H](O)CN1 | 3.14 | 39.6 µM | 0.0573 µM | 3.87 | > 78.4 | 10.2 | 22.4 µM | 0.716 | 15.4 | 13.1 µM | 45.6 | 28.9 | 0.0552 | 1.33 µM | 19.6 µM | 0.491 | 15.4 | 11.4 | 13.2 | 21.3
10 | C#CCSc1n[nH]c(-c2ccco2)n1 | – | > 100 µM | – | – | > 100 | – | > 100 µM | – | > 100 | – | > 100 | > 100 | – | – | > 100 µM | – | 32 | > 100 | – | > 100
11 | NC(=O)C1c2ccccc2C=Cc2ccccc21 | > 100 | > 100 µM | > 100 µM | > 100 | > 100 | > 100 | > 100 µM | > 100 | > 100 | > 100 µM | > 100 | > 100 | > 100 | > 100 µM | > 100 µM | > 100 | > 100 | > 100 | > 100 | > 100
12 | CCCCCCCCCCCCNC(=O)[C@H]1CSC(c2cc3ccccc3s2)N1 (some centres not stated) | 6.01 | 11.3 µM | 0.923 µM | 0.717 | 1.62 | 0.534 | 1.05 µM | 5.75 | 10.9 | 4.16 µM | 8.53 | 8.53 | 5.5 | 4.12 µM | 8.6 µM | 4.16 | 8.37 | 2.51 | 2.23 | 12.3
13 | COc1cccc(Cn2c(-c3nonc3N)nc3ccccc32)c1 | 0.625 | > 100 µM | 0.624 µM | 0.355 | > 100 | 0.547 | > 100 µM | 0.425 | > 95.1 | 1.17 µM | > 68 | > 100 | 0.475 | 0.314 µM | > 100 µM | 0.632 | > 100 | > 75.6 | 0.61 | > 100
14 | C/C1=C/C(=O)O[C@@H]2C[C@@H](CC[C@H](C)/C=C\C=C\CC1)O[C@@](O)([C@@H]1CSC(=O)N1CO)C2 | 0.0465 | > 46 µM | 0.0251 µM | 0.213 | 27.1 | 0.0228 | 11.1 µM | 0.0962 | 21 | 0.0367 µM | > 33.9 | 74.6 | 0.0593 | 0.42 µM | 16 µM | 0.0241 | 0.132 | 0.0928 | 1.6 | 47.6
15 | COc1ccc(-c2nsc3c2NC(=O)CC3c2ccc(F)cc2)cc1 (configuration not stated) | 4.58 | > 100 µM | 5.44 µM | 1.37 | > 100 | 7.18 | > 100 µM | 10.3 | > 100 | 5.94 µM | > 100 | > 100 | 4.64 | 16.6 µM | > 100 µM | 4.59 | > 100 | > 100 | 5.66 | > 100
